From US20130142831A1, “COMPOUNDS FOR INFLAMMATION AND IMMUNE-RELATED USES” (Synta Pharmaceuticals Corp., priority 2004, published 2013) come the findings set out here.

Counter-ions that a name gives are not always drawn.

What is called IC50 is the point on the concentration scale where inhibition reaches its midpoint.

Common to all, as to format: cell-based
The subject of one assay is GM-CSF. Description: Cytokine inhibition in PHA-stimulated primary human PBMCs: GM-CSF. To be noted: PBMCs stimulated with PHA; for IC50: Homo sapiens, PBMC, ELISA. The method, then:
(§1) Cytokine production was measured using commercially available human ELISA assay kits (from Cell Science, Inc.) following the manufacturers instructions.

In another assay the test system is INF-γ. Description: Cytokine inhibition in PHA-stimulated primary human PBMCs: INF-γ. As to conditions: PBMCs stimulated with PHA; for IC50: Homo sapiens, PBMC, ELISA. How it is done: as §1
Background: An ELISA detects its analyte on a solid surface through an enzyme-linked reagent.

A further assay concerns IL-2 production. As to the kind of experiment: Inhibition of IL-2 production in PHA-activated Jurkat cells. As to conditions: Homo sapiens, PHA 2.5 μg/mL, 20 hours. An outline of the steps: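 Jurkat cells (0.5 million/well, 1% FBS) were preincubated with compound for 10 min, then stimulated with PHA (2.5 μg/mL final) for 20 h at 37 °C. Supernatant IL-2 was measured by ELISA. IC50 is the concentration giving 50% inhibition of maximal stimulated IL-2 relative to a non-stimulated control.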

Another assay concerns TNF-α. Description: Cytokine inhibition in PHA-stimulated primary human PBMCs: TNF-α. As to conditions: PBMCs stimulated with PHA; for IC50: Homo sapiens, PBMC, ELISA. How it is done: as §1
For the next assay, the system named is IL-10. Description: Cytokine inhibition in PHA-stimulated primary human PBMCs: IL-10. As to conditions: PBMC, PBMCs stimulated with PHA, ELISA. The method, then: as §1
The test system of the next assay is IL-5. As to the kind of experiment: Cytokine inhibition in PHA-stimulated primary human PBMCs: IL-5. As to conditions: PBMCs stimulated with PHA; for IC50: Homo sapiens, PBMC, ELISA. The method, then:
as §1

The next assay deals with IL-4. As to the kind of experiment: Cytokine inhibition in PHA-stimulated primary human PBMCs: IL-4. To be noted: PBMCs stimulated with PHA; for IC50: Homo sapiens, PBMC, ELISA. How it is done: as §1
The test system of another assay is IL-13. Description: Cytokine inhibition in PHA-stimulated primary human PBMCs: IL-13. As to conditions: PBMCs stimulated with PHA; for IC50: Homo sapiens, PBMC, ELISA. How it is done: as §1
The subject of another assay is IL-2. Description: Cytokine inhibition in PHA-stimulated primary human PBMCs: IL-2. As to conditions: PBMCs stimulated with PHA; for IC50: Homo sapiens, PBMC, ELISA. The method, then: as §1

As for `COc1ccc2c(c1)nc(C(F)(F)F)n2-c1ccc(NC(=O)c2c(F)ccc(F)c2F)cc1` [Compound 1, 2,3,6-Trifluoro-N-[4-(2-trifluoromethyl-5-methoxy-benzoimidazol-1-yl)-phenyl]-benzamide], the IC50 with GM-CSF was 788 nM; in the assay with INF-γ it was 95 nM; in the assay with IL-2 production (bins given in nM), below 100 nM; in the assay on TNF-α it was 424 nM; in the assay with IL-10, above 1000 nM; in the assay with IL-5, 26 nM. Besides, the IC50 in the assay with IL-4 worked out at 651 nM; in the assay with IL-13 it was 73 nM; with IL-2, 29 nM.
Regarding `COc1ccc2c(c1)nc(C(F)(F)F)n2-c1ccc(NC(=O)c2ccc3c(c2)OCO3)cc1` [Compound 75, Benzo[1,3]dioxole-5-carboxylic acid {N-[4-(2-trifluoromethyl-5-methoxy-benzoimidazol-1-yl)-phenyl]} amide], in the assay on GM-CSF, the “Inhibition of GM-CSF (in words)” value was “potent inhibitors”. The “Inhibition of INF-γ (in words)” value in the assay on INF-γ is given as “potent inhibitors”. Further, the IC50 in the assay on IL-2 production (bins given in nM) fell in the range of 100 to 500 nM. In addition, the “Inhibition of TNF-α (in words)” value in the assay on TNF-α is on record as “potent inhibitors”. Also, the “Inhibition of IL-5 (in words)” value in the assay on IL-5 is “potent inhibitors”. Further, the “Inhibition of IL-4 (in words)” value with IL-4 is listed as “potent inhibitors”. The “Inhibition of IL-13 (in words)” value in the assay with IL-13 is on record as “potent inhibitors”. The “Inhibition of IL-2 (in words)” value in the assay on IL-2 is on record as “potent inhibitors”.
In the assay with IL-2 production (bins given with μM limit), `COc1ccc2c(c1)nc(C(F)(F)F)n2-c1ccc(NC(=O)c2ccccc2OC)cc1` [Compound 128, 2-Methoxy-N-[4-(2-trifluoromethyl-5-methoxy-benzoimidazol-1-yl)-phenyl]-benzamide] gave an IC50 above 1000 nM.
Consider `COc1ccc2c(c1)nc(C(F)(F)F)n2-c1ccc(NC(=O)c2cc(C(F)(F)F)cc(C(F)(F)F)c2)cc1` [Compound 129, 3,5-Di-(trifluoromethyl)-N-[4-(2-trifluoromethyl-5-methoxy-benzoimidazol-1-yl)-phenyl]-benzamide], for which the IC50 with IL-2 production (bins given with μM limit) was above 1000 nM.
As to `COc1ccc(OC)c(C(=O)Nc2ccc(-n3c(C(F)(F)F)nc4cc(OC)ccc43)cc2)c1` [Compound 130, 2,5-Dimethoxy-N-[4-(2-trifluoromethyl-5-methoxy-benzoimidazol-1-yl)-phenyl]-benzamide], the IC50 with IL-2 production (bins given with μM limit) is above 1000 nM.
In the assay on IL-2 production (bins given with μM limit), `COc1ccc2c(c1)nc(C(F)(F)F)n2-c1ccc(NC(=O)Cc2ccc(OC)c(OC)c2)cc1` [Compound 131, 2-(3,4-dimethoxy-phenyl)-N-[4-(2-trifluoromethyl-5-methoxy-benzoimidazol-1-yl)-phenyl]-acetamide] came in with an IC50 above 1000 nM.
In the case of `CC(=O)Oc1ccc2c(c1)nc(C(F)(F)F)n2-c1ccc(NC(=O)c2cccc(F)c2F)cc1` [Compound 132, 2,3-Difluoro-N-[4-(2-trifluoromethyl-5-acetoxy-benzoimidazol-1-yl)-phenyl]-benzamide], in the assay on IL-2 production (bins given in nM), the IC50 was below 100 nM.
For `CC(=O)c1ccc2c(c1)nc(C(F)(F)F)n2-c1ccc(NC(=O)c2cccc(F)c2F)cc1` [Compound 133, 2,3-Difluoro-N-[4-(2-trifluoromethyl-5-acetyl-benzoimidazol-1-yl)-phenyl]-benzamide], the IC50 with IL-2 production (bins given in nM) lay in the range of 100 to 500 nM.
For `COc1ccc2c(c1)nc(C(F)(F)F)n2-c1ccc(NCc2c(F)cccc2F)cc1` [Compound 135, 2,6-Difluoro-N-[4-(2-trifluoromethyl-5-methoxy-benzoimidazol-1-yl)-phenyl]-benzylamine, HCl salt], the IC50 in the assay on GM-CSF is 99 nM; in the assay on INF-γ it was 29 nM; in the assay with IL-2 production (bins given in nM) it was below 100 nM; in the assay on TNF-α, 47 nM; in the assay on IL-10, 439 nM; with IL-5, 13 nM. For the same compound, the IC50 with IL-4 was found to be 101 nM; in the assay with IL-13, 25 nM; with IL-2, 3 nM.
